Assay results taken from US20220105113A1, “CYLODIMER OF DEHYDROSALICORTIN AND DERIVATIVES THEREOF ISOLATED FROM PLANT OF THE GENUS SALIX FOR USE IN CANCER THERAPY” (ROTHAMSTED RESEARCH LTD, priority 2019, published 2022).
≈ marks a conversion by molar mass, not a printed value. Where two headings read alike, the source gives them in different places.

What was measured:
Type in all cases: cell-based
BT-474 = assay: MTT dye reduction cell viability assay, BT-474 breast cancer cell line; details: Homo sapiens, BT-474, MTT 120 h, read-out: Miyabeacin IC50
Experimental: (§1) The activity of miyabeacin was tested against a range of cancer cell lines including those in neuroblastoma and breast, oesophageal and ovarian cancers (Table 10).
(§2) The MYCN-amplified neuroblastoma cell line UKF-NB-3 was established from a stage 4 neuroblastoma patient (Kotchetkov et al., 2005). Also tested was the vincristine-resistant UKF-NB-3 sub-line UKF-NB-3^rVCR (Rothwell et al., 2010) (adapted to grow in the presence of vincristine 10 ng/mL). At a concentration of 20 μg/mL of miyabeacin, the cell viability, relative to non-treated cells, after 120 hours was 0% for UKF-NB-3 and 4.22±2.89% for the vincristine resistant UKF-NB-3^rVCR line. The oesophageal cancer cell line COLO-680N was obtained from ATCC (Manassas, Va., USA) and the ovarian cancer cell line COLO-704 from DSMZ (Braunschweig, Germany). All cell lines were propagated in Iscove's modified Dulbecco's medium (IMDM) supplemented with 10% FCS, 100 IU/ml penicillin and […] streptomycin at 37° C. […] Cell viability was determined by the 3-(4,5-dimethylthiazol-2-yl)-2,5-diphenyltetrazolium bromide (MTT) dye reduction assay after 120 h incubation as described previously (Michaelis et al., 2015). […] Plates were then read at 600 nm. The relative viability was determined as the relative reduction of the optical density relative to an untreated cell control (=100%).

COLO-680N = assay: MTT dye reduction cell viability assay, COLO-680N oesophageal cancer cell line; details: Homo sapiens
Experimental: as §1
(§3) The MYCN-amplified neuroblastoma cell line UKF-NB-3 was established from a stage 4 neuroblastoma patient (Kotchetkov et al., 2005). Also tested was the vincristine-resistant UKF-NB-3 sub-line UKF-NB-3^rVCR (Rothwell et al., 2010) (adapted to grow in the presence of vincristine 10 ng/mL). At a concentration of 20 μg/mL of miyabeacin, the cell viability, relative to non-treated cells, after 120 hours was 0% for UKF-NB-3 and 4.22±2.89% for the vincristine resistant UKF-NB-3^rVCR line. The oesophageal cancer cell line COLO-680N was obtained from ATCC (Manassas, Va., USA) and the ovarian cancer cell line COLO-704 from DSMZ (Braunschweig, Germany). All cell lines were propagated in Iscove's modified Dulbecco's medium (IMDM) supplemented with 10% FCS, 100 IU/ml penicillin and […] streptomycin at 37° C. Cells were routinely tested for mycoplasma contamination and authenticated by short tandem repeat profiling. Cell viability was determined by the 3-(4,5-dimethylthiazol-2-yl)-2,5-diphenyltetrazolium bromide (MTT) dye reduction assay after 120 h incubation as described previously (Michaelis et al., 2015). Briefly, 5000 cells (suspended in 100 μL IMDM supplemented with 10% FCS, 100 IU/ml penicillin and […] streptomycin) were incubated in 96-well plates at 37° C. and 5% CO2 in the absence or presence of varying compound concentrations for 120 h. Then, 25 μL of MTT solution ([…] dissolved in PBS) were added for 4 h. This was followed by the addition of […] of 20% sodium dodecyl sulphate (50:50 purified water/DMF) solution adjusted to pH 4.7 for an additional 4 h in order to lyse cells and dissolve formazan precipitates. Plates were then read at 600 nm. The relative viability was determined as the relative reduction of the optical density relative to an untreated cell control (=100%).

COLO-704 = assay: MTT dye reduction cell viability assay, COLO-704 ovarian cancer cell line
Experimental: as §1, §3

EFO-21 = assay: MTT dye reduction cell viability assay, EFO-21 ovarian cancer cell line; details: Homo sapiens, EFO-21, MTT 120 h, read-out: Miyabeacin IC50
Experimental: as §1, §2

MCF-7 = assay: MTT dye reduction cell viability assay, MCF-7 breast cancer cell line; details: Homo sapiens, MCF7, MCF-7, MTT 120 h, read-out: Miyabeacin IC50
Experimental: as §1, §2

UKF-NB-3 = assay: MTT dye reduction cell viability assay, UKF-NB-3 neuroblastoma cell line
Experimental: as §1, §3

UKF-NB-3^rVCR = assay: MTT dye reduction cell viability assay, vincristine-resistant UKF-NB-3 sub-line; details: 20 μg/mL, after 120 hours, vincristine resistant UKF-NB-3^rVCR; read-out: cell viability, relative to non-treated cells
Experimental: (§4) The MYCN-amplified neuroblastoma cell line UKF-NB-3 was established from a stage 4 neuroblastoma patient (Kotchetkov et al., 2005). Also tested was the vincristine-resistant UKF-NB-3 sub-line UKF-NB-3^rVCR (Rothwell et al., 2010) (adapted to grow in the presence of vincristine 10 ng/mL). At a concentration of 20 μg/mL of miyabeacin, the cell viability, relative to non-treated cells, after 120 hours was 0% for UKF-NB-3 and 4.22±2.89% for the vincristine resistant UKF-NB-3^rVCR line. The oesophageal cancer cell line COLO-680N was obtained from ATCC (Manassas, Va., USA) and the ovarian cancer cell line COLO-704 from DSMZ (Braunschweig, Germany). All cell lines were propagated in Iscove's modified Dulbecco's medium (IMDM) supplemented with 10% FCS, 100 IU/ml penicillin and […] streptomycin at 37° C. Cells were routinely tested for mycoplasma contamination and authenticated by short tandem repeat profiling. Cell viability was determined by the 3-(4,5-dimethylthiazol-2-yl)-2,5-diphenyltetrazolium bromide (MTT) dye reduction assay after 120 h incubation as described previously (Michaelis et al., 2015). […] Plates were then read at 600 nm. The relative viability was determined as the relative reduction of the optical density relative to an untreated cell control (=100%).

[1] = system: UKF-NB-3, COLO-680N and COLO-704; assay: Replicated IC50 determination (MTT) on three selected lines; details: range of means over UKF-NB-3, COLO-680N and COLO-704
Experimental: as §4

O=C(OCc1ccccc1O[C@H]1OC(CO)[C@H](O)C(O)C1O)[C@@]1(O)C(=O)C2C=CC1C1C2C=CC(=O)[C@]1(O)C(=O)OCc1ccccc1O[C@H]1OC(CO)[C@H](O)C(O)C1O (stereo partly drawn) [miyabeacin] showed an IC50 (BT-474) of 27 mg/L (≈ 32 µM), an IC50 (COLO-680N; expt 1, read-out: miyabeacin IC50 concentration expt 1) of 5.08 mg/L and an IC50 (COLO-680N; expt 2, read-out: miyabeacin IC50 concentration expt 2) of 15.1 mg/L. The IC50 (COLO-680N; expt 3, read-out: miyabeacin IC50 concentration expt 3) was 51.5 mg/L, the IC50 (COLO-680N; mean of 3 expts, read-out: IC50 mean) was 28.3 µM and the IC50 (COLO-680N; mean of 3 expts, read-out: miyabeacin IC50 concentration mean) was 23.9 mg/L. For the same molecule, the IC50 (COLO-680N; oesophageal, MTT 120 h, read-out: Miyabeacin IC50) was 5.08 mg/L, the IC50 (COLO-704; COLO-704, expt 1, read-out: miyabeacin IC50 concentration expt 1) was 20.2 mg/L and the IC50 (COLO-704; COLO-704, expt 2, read-out: miyabeacin IC50 concentration expt 2) was 32.4 mg/L. It also gave an IC50 (COLO-704; COLO-704, expt 3, read-out: miyabeacin IC50 concentration expt 3) of 50.8 mg/L, an IC50 (COLO-704; COLO-704, mean of 3 expts, read-out: IC50 mean) of 40.2 µM and an IC50 (COLO-704; COLO-704, mean of 3 expts, read-out: miyabeacin IC50 concentration mean) of 34.5 mg/L. It also gave an IC50 (COLO-704; ovarian, COLO-704, MTT 120 h, read-out: Miyabeacin IC50) of 20.2 mg/L, an IC50 (EFO-21) of 12.7 mg/L (≈ 15 µM) and an IC50 (MCF-7) of 2.19 mg/L (≈ 2.59 µM). The viability at 20 µg/mL (UKF-NB-3; 20 μg/mL, after 120 hours, UKF-NB-3, read-out: cell viability, relative to non-treated cells) was 0%, the IC50 (UKF-NB-3; UKF-NB-3, expt 1, read-out: miyabeacin IC50 concentration expt 1) was 7.12 mg/L and the IC50 (UKF-NB-3; UKF-NB-3, expt 2, read-out: miyabeacin IC50 concentration expt 2) was 21 mg/L. The IC50 (UKF-NB-3; UKF-NB-3, expt 3, read-out: miyabeacin IC50 concentration expt 3) was 15.3 mg/L, the IC50 (UKF-NB-3; UKF-NB-3, mean of 3 expts, read-out: IC50 mean) was 17.2 µM and the IC50 (UKF-NB-3; UKF-NB-3, mean of 3 expts, read-out: miyabeacin IC50 concentration mean) was 14.5 mg/L. It also gave an IC50 (UKF-NB-3; neuroblastoma, UKF-NB-3, MTT 120 h, read-out: Miyabeacin IC50) of 7.12 mg/L, a viability at 20 µg/mL (UKF-NB-3^rVCR) of 4.22 ± 2.89% and an IC50 [1] of 17.2 to 40.2 µM.
